The text below walks through data of patent publication US12503438B2, “Compounds for the treatment of kinase-dependent disorders” (Exelixis, Inc., priority 2019, dated 2025).

Holding throughout (format): cell-based
The target of one assay is Met (Homo sapiens, UniProt P08581). Put plainly: Met autophosphorylation ELISA in PC-3 cells. Also on record: endogenous in cells; host or cells: PC-3 prostate cancer cells (ATCC #CRL-1435). The settings on record: cellular activity, HGF-stimulated, phospho-Met ELISA, read-out: c-Met IC50. Here is the method:
PC-3 prostate cancer cells (ATCC #CRL-1435) were seeded at 4×10^4 cells/well onto 24-well plates (Greiner #662165), in DMEM (Thermo Fisher #11995-040) containing 10% FBS (Thermo Fisher #26140-079), 1% MEM NEAA (Thermo Fisher #11140-050), 1% GlutaMax (Thermo Fisher #35050-061), and 1% Penicillin Streptomycin (Thermo Fisher #15140-122). PC-3 cells were incubated at 37° C., 5% CO2 for 24 h and then starved for 3 h in serum-free medium. Test compounds were serially diluted to produce an 8-point dose curve in fresh serum-free medium to a final concentration of 0.3% DMSO (vehicle) and added to the cells and incubated for 1 h. Cells were then stimulated with 100 ng/mL recombinant human HGF (R&D Systems #294-HG-250) for 10 min, washed with cold PBS and immediately lysed with 130 μL of cold 1× lysis buffer [20 mM Tris, 137 mM sodium chloride, 2 mM EDTA, 10% glycerol, 1% NP-40 alternative, 1 mM activated sodium orthovanadate, 1 mM PefaBloc SC (Sigma-Aldrich #11429868001), protease/phosphatase inhibitor tablet (Thermo Fisher #A32959)]. Lysates were clarified by centrifugation and 100 μL/well added into the PathScan phospho-Met (panTyr) Sandwich ELISA (Cell Signaling Technology #7333). Assay was performed according to manufacturer's instructions. Positive control wells (100% activity) contained HGF-stimulated, DMSO-treated cell lysates. Negative control wells (0% activity) contained HGF-stimulated, reference inhibitor-treated cell lysates. IC50 values were calculated by nonlinear regression analysis using a 4-parameter logistic curve fit in ActivityBase XE (IDBS).

For the next assay, the target named is T1, AXL (Homo sapiens, UniProt P30530).
T1 construct: endogenous in cells; host or cells: A-172 glioblastoma cells (ATCC #CRL-1620)
T1 sequence (P30530 26-894): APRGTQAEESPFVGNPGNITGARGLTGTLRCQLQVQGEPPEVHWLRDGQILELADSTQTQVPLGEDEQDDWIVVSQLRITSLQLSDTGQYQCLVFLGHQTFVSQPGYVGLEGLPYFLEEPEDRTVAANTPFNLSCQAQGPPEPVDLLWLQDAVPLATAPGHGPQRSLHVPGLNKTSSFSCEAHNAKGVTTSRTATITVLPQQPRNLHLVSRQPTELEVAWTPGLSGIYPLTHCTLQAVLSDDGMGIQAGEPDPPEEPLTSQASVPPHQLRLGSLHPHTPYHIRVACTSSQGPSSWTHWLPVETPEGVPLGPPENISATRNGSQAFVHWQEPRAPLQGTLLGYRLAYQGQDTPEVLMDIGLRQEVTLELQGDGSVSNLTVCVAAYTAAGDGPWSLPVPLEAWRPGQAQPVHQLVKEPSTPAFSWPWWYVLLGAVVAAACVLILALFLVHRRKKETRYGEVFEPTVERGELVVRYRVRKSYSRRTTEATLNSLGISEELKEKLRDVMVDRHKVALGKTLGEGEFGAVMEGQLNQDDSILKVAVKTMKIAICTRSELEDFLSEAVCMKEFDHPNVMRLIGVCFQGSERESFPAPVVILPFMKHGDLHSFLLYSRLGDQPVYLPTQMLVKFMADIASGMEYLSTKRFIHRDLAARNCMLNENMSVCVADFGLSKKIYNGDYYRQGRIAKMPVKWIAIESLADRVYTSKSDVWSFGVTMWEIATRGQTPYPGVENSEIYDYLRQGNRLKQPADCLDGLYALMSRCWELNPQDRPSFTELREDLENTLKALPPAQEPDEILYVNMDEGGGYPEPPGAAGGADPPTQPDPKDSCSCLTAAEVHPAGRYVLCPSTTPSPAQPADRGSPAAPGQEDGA
Put plainly: AXL autophosphorylation ELISA in A-172 cells. Conditions: cellular activity, Gas6-stimulated, phospho-AXL ELISA. Here is the method: A-172 glioblastoma cells (ATCC #CRL-1620) were seeded at 2.5×10^5 cells/well onto 24-well plates (Greiner #662165), in DMEM (Thermo Fisher #11995-040) containing 10% FBS (Thermo Fisher #26140-079), 1% MEM NEAA (Thermo Fisher #11140-050), 1% GlutaMax (Thermo Fisher #35050-061) and 1% Penicillin Streptomycin (Thermo Fisher #15140-122). A-172 cells were incubated at 37° C., 5% CO2 for 24 h and then starved for 24 h in serum-free medium. Test compounds were serially diluted to produce an 8-point dose curve in fresh serum-free medium to a final concentration of 0.3% DMSO (vehicle) and added to the cells and incubated for 1 h. Cells were then stimulated with 1 μg/mL recombinant human Gas6 (R&D Systems #885-GSB-500) for 15 min, washed with cold PBS and immediately lysed with 150 μL of cold 1× lysis buffer [20 mM Tris, 137 mM sodium chloride, 2 mM EDTA, 10% glycerol, 1% NP-40 alternative, 1 mM activated sodium orthovanadate, 1 mM PefaBloc SC (Sigma-Aldrich #11429868001), protease/phosphatase inhibitor tablet (Thermo Fisher #A32959)]. Lysates were collected and 100 μL/well added into the human phospho-AXL DuoSet IC ELISA (R&D Systems #DYC2228-2). Assay was performed according to manufacturer's instructions and sample phospho-AXL concentrations were extrapolated using human phospho-AXL control (R&D Systems #841645) as a standard. Positive control wells (100% activity) contained Gas6-stimulated, DMSO-treated cell lysates. Negative control wells (0% activity) contained Gas6-stimulated, reference inhibitor-treated cell lysates. IC50 values were calculated by nonlinear regression analysis using a 4-parameter logistic curve fit in ActivityBase XE (IDBS).

A further assay addresses KDR (Homo sapiens, UniProt P35968). The assay is described as follows: KDR autophosphorylation ELISA in HUVEC cells. Also noted: endogenous in cells; host or cells: HUVEC (Lonza #C2519A). The settings on record: cellular activity, VEGF165-stimulated, phospho-KDR ELISA. Here is the method:
Human umbilical vein endothelial cells or HUVEC (Lonza #C2519A) were seeded at 2×10^4 cells/well onto 96-well plates (Corning #3904), in EGM-2 growth medium (Lonza #CC-3162) containing 1% Penicillin Streptomycin (Thermo Fisher #15140-122). HUVEC cells were incubated at 37° C., 5% CO2 for 24 h and then starved for 24 h in serum-free EBM-2 basal medium (Lonza #CC-3156) containing 1% Penicillin Streptomycin. Test compounds were serially diluted to produce an 8-point dose curve in fresh serum-free medium to a final concentration of 0.3% DMSO (vehicle) and added to the cells and incubated for 1 h. Cells were then stimulated with 100 ng/mL recombinant human VEGF165 (R&D Systems #293-VE-500) for 5 min, washed with cold PBS, and immediately lysed with 130 μL of cold 1× lysis buffer [20 mM Tris, 137 mM sodium chloride, 2 mM EDTA, 10% glycerol, 1% NP-40 alternative, 1 mM activated sodium orthovanadate, 1 mM PefaBloc SC (Sigma-Aldrich #11429868001), protease/phosphatase inhibitor tablet (Thermo Fisher #A32959)]. Lysates were collected and 100 μL/well added into the human phospho-KDR DuoSet IC ELISA (R&D Systems #DYC1766-2). Assay was performed according to manufacturer's instructions and sample phospho-KDR concentrations were extrapolated using human phospho-KDR control (R&D Systems #841421) as a standard. Positive control wells (100% activity) contained VEGF165-stimulated, DMSO-treated cell lysates. Negative control wells (0% activity) contained non-stimulated cell lysates. IC50 values were calculated by nonlinear regression analysis using a 4-parameter logistic curve fit in ActivityBase XE (IDBS).
For orientation: ELISA stands for enzyme-linked immunosorbent assay.

As a reminder, the IC50 is the concentration needed to halve the response being measured.

KDR, sequence (P35968 20-1356): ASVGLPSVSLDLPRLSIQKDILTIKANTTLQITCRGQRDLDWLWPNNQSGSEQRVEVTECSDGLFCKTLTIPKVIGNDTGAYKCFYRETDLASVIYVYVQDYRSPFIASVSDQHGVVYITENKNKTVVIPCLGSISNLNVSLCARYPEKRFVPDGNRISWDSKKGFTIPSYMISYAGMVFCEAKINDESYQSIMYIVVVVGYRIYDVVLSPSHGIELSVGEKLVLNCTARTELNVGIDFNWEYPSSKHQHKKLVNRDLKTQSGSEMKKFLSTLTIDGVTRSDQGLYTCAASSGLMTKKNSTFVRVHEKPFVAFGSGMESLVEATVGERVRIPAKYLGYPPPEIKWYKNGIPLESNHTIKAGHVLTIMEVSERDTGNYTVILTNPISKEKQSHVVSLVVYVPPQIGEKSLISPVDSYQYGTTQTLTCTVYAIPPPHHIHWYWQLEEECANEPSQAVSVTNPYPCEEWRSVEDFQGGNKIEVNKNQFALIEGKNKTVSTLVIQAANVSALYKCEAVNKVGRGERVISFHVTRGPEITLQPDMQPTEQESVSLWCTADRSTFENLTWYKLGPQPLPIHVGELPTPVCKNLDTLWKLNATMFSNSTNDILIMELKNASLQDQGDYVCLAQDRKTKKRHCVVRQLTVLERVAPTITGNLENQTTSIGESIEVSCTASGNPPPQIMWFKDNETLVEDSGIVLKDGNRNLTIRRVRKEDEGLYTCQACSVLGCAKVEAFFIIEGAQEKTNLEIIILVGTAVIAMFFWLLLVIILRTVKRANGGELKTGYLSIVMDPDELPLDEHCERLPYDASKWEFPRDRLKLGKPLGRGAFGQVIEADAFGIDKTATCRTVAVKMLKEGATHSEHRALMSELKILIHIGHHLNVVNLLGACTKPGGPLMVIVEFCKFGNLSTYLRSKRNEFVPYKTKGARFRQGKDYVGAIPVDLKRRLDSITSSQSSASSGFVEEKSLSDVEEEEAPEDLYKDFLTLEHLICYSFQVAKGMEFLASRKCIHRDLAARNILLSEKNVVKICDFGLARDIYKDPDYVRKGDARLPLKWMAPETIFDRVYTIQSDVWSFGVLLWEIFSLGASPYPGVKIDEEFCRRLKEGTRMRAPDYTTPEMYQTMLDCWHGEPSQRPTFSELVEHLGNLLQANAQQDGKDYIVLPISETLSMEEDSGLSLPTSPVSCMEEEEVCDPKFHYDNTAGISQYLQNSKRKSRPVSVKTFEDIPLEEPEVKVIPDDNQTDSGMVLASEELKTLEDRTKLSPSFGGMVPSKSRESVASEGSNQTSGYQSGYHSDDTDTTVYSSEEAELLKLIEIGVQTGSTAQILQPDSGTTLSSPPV
Met, sequence (P08581 25-1390): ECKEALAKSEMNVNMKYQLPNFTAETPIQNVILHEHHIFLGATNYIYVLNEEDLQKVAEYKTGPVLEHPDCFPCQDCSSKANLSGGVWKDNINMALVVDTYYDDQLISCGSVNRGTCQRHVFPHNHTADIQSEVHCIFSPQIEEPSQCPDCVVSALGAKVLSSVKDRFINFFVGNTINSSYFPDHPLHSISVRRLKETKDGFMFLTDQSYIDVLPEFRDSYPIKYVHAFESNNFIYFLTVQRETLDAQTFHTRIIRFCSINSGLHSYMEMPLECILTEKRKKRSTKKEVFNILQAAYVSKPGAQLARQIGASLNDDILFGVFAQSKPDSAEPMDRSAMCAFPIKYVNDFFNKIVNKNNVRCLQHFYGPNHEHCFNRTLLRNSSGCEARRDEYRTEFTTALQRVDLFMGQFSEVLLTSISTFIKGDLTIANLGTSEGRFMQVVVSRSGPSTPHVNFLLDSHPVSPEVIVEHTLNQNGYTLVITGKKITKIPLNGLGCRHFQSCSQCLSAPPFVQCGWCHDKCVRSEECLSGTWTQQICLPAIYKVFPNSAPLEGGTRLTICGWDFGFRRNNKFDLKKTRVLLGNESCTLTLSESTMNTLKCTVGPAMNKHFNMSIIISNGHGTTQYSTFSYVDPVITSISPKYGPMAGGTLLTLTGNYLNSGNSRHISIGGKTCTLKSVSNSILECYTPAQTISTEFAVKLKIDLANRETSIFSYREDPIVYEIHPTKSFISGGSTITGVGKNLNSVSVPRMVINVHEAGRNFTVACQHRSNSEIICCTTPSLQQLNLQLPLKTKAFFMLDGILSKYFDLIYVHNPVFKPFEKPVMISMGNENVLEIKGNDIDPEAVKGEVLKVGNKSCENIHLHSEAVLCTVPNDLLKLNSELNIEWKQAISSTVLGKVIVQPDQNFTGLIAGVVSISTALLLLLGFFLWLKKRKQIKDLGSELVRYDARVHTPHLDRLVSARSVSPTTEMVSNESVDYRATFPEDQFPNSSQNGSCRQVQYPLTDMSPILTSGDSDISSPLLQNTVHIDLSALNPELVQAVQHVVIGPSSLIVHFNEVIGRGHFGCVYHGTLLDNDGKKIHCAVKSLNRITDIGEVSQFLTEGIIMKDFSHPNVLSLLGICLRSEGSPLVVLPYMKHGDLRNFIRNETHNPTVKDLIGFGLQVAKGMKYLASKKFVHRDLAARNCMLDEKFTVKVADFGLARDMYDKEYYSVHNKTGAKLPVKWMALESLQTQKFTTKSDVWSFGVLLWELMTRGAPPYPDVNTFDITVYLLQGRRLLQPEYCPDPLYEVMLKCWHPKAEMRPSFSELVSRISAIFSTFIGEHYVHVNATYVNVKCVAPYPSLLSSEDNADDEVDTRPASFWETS

In the case of `O=C(Nc1ccc(F)cc1)C1(C(=O)Nc2ccc(Oc3ccnc4cc(C5CCOC5)ccc34)cc2)CC1` (single isomer, unassigned) [Compound 88, 1-N′-(4-Fluorophenyl)-1-N-[4-[7-[oxolan-3-yl]quinolin-4-yl]oxyphenyl]cyclopropane-1,1-dicarboxamide], the half-maximal inhibitory concentration (IC50) on Met was 10 to 100 nM; at AXL, above 300 nM; against KDR, above 300 nM.

For the compound `O=C(Nc1ccc(F)cc1)C1(C(=O)Nc2ccc(Oc3ccnc4cc(-c5cncc(C(F)(F)F)c5)ccc34)cc2)CC1` [Compound 48, 1-N′-(4-Fluorophenyl)-1-N-[4-[7-[5-(trifluoromethyl)pyridin-3-yl]quinolin-4-yl]oxyphenyl]cyclopropane-1,1-dicarboxamide], the IC50 at Met was in the range of 100 to 300 nM.

Regarding `O=C(Nc1ccc(F)cc1)C1(C(=O)Nc2ccc(Oc3ccnc4cc(-c5cc(C(F)(F)F)[nH]n5)ccc34)cc2)CC1` [Compound 100, 1-N′-(4-Fluorophenyl)-1-N-[4-[7-[5-(trifluoromethyl)-1H-pyrazol-3-yl]quinolin-4-yl]oxyphenyl]cyclopropane-1,1-dicarboxamide], the IC50 on Met lay in the range of 100 to 300 nM.

Take `O=C(Nc1ccc(F)cc1)C1(C(=O)Nc2ccc(Oc3ccnc4cc(-c5ccc(N6CCCC6)nc5)ccc34)cc2)CC1` [Compound 49, 1-N′-(4-Fluorophenyl)-1-N-[4-[7-(6-pyrrolidin-1-ylpyridin-3-yl)quinolin-4-yl]oxyphenyl]cyclopropane-1,1-dicarboxamide]: the IC50 at Met and against AXL was 100 to 300 nM in each case.

`O=C(Nc1ccc(F)cc1)C1(C(=O)Nc2ccc(Oc3ccnc4cc(C5CCOC5)ccc34)cc2)CC1` (single isomer, unassigned) [Compound 89, 1-N′-(4-Fluorophenyl)-1-N-[4-[7-[oxolan-3-yl]quinolin-4-yl]oxyphenyl]cyclopropane-1,1-dicarboxamide]: the IC50 on Met is 10 to 100 nM; on AXL, above 300 nM; on KDR it was above 300 nM.

On to `Cc1ccc(-c2ccc3c(Oc4ccc(NC(=O)C5(C(=O)Nc6ccc(F)cc6)CC5)cc4)ccnc3c2)cn1` [Compound 37, 1-N′-(4-Fluorophenyl)-1-N-[4-[7-(6-methylpyridin-3-yl)quinolin-4-yl]oxyphenyl]cyclopropane-1,1-dicarboxamide], for which the results for the IC50 on Met, at AXL and at KDR were 10 to 100 nM, 100 to 300 nM and 10 to 100 nM, respectively.

For `O=C(Nc1ccc(F)cc1)C1(C(=O)Nc2ccc(Oc3ccnc4cc(-c5ccnc(C(F)(F)F)c5)ccc34)cc2)CC1` [Compound 36, 1-N′-(4-Fluorophenyl)-1-N-[4-[7-[2-(trifluoromethyl)pyridin-4-yl]quinolin-4-yl]oxyphenyl]cyclopropane-1,1-dicarboxamide], the IC50 at Met was in the range of 100 to 300 nM.

For `O=C(Nc1ccc(F)cc1)C1(C(=O)Nc2ccc(Oc3ccnc4cc(-c5ccc(C(F)(F)F)nc5)ccc34)cc2)CC1` [Compound 35, 1-N′-(4-Fluorophenyl)-1-N-[4-[7-[6-(trifluoromethyl)pyridin-3-yl]quinolin-4-yl]oxyphenyl]cyclopropane-1,1-dicarboxamide], the IC50 on Met is 100 to 300 nM.

As for `Cc1cc2c(Oc3ccc(NC(=O)C4(C(=O)Nc5ccc(F)cc5)CC4)cc3)ccnc2cc1-c1cn[nH]c1` [Compound 106, 1-N′-(4-Fluorophenyl)-1-N-[4-[6-methyl-7-(1H-pyrazol-4-yl)quinolin-4-yl]oxyphenyl]cyclopropane-1,1-dicarboxamide], the IC50 on Met was 10 to 100 nM; on AXL it was 10 to 100 nM; on KDR, at most 10 nM.

With `CN(C(=O)C1(C(=O)Nc2ccc(Oc3ccnc4cc(-c5cnn(C(F)F)c5)ccc34)cc2)CC1)c1ccc(F)cc1` [Compound 126, 1-N-[4-[7-[1-(Difluoromethyl)pyrazol-4-yl]quinolin-4-yl]oxyphenyl]-1-N′-(4-fluorophenyl)-1-N′-methylcyclopropane-1,1-dicarboxamide], on Met, the IC50 is above 300 nM.

On to `Cc1cc(-c2ccc3c(Oc4ccc(NC(=O)C5(C(=O)Nc6ccc(F)cc6)CC5)cc4)ccnc3c2)cc(C)n1` [Compound 32, 1-N-[4-[7-(2,6-Dimethylpyridin-4-yl)quinolin-4-yl]oxyphenyl]-1-N′-(4-fluorophenyl)cyclopropane-1,1-dicarboxamide], for which the concentration for half-maximal inhibition (IC50) on Met was 10 to 100 nM.

Consider `O=C(Nc1ccc(F)cc1)C1(C(=O)Nc2ccc(Oc3ccnc4cc(-c5cnc6[nH]ccc6c5)ccc34)cc2)CC1` [Compound 44, 1-N′-(4-Fluorophenyl)-1-N-[4-[7-(1H-pyrrolo[2,3-b]pyridin-5-yl)quinolin-4-yl]oxyphenyl]cyclopropane-1,1-dicarboxamide], for which the IC50 at Met fell in the range of 100 to 300 nM.
